{"source": "patent US8574578B2", "about": "“Antibodies against PDGFRα to inhibit tumor growth” (ImClone LLC, priority 2006, dated 2013)", "key": {"[1]": {"molecular_target": "T1, PDGFRα (Homo sapiens, UniProt P16234)", "T1 sequence (P16234 24-1089)": "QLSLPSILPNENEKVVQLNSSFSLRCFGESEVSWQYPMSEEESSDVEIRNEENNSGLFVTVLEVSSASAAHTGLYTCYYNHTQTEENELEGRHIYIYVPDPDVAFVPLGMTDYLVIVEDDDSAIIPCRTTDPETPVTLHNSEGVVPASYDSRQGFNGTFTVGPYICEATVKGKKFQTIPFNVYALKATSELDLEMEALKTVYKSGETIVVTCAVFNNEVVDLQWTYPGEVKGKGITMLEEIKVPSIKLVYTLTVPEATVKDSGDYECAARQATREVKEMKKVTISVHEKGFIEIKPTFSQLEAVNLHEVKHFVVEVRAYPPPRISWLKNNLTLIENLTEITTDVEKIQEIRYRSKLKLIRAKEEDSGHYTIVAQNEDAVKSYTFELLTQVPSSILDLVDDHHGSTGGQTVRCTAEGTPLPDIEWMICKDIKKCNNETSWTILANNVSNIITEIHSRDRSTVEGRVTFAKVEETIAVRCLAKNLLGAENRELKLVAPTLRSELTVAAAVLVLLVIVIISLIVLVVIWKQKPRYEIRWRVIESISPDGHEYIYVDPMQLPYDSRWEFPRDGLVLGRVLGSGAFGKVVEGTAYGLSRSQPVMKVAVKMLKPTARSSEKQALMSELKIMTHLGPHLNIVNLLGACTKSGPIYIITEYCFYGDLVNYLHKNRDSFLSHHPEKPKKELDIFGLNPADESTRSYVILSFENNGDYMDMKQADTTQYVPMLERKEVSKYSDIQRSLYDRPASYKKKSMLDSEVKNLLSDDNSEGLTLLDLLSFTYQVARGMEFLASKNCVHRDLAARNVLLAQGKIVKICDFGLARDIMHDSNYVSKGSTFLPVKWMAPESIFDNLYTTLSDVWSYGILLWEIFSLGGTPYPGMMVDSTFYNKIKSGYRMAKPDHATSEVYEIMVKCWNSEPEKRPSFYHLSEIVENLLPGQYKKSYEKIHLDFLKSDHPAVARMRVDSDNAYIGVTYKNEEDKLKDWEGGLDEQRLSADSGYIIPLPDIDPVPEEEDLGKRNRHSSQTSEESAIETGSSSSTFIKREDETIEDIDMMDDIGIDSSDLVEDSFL", "experiment": "PDGFRα phosphotyrosine level in U118 tumors in vivo", "design": "Two such tumor cell lines that express PDGFRα as determined by flow cytometry are SKLMS-1 (leiomyosarcoma) and U118 (glioblastoma); endogenous in cells; host or cells: U118 human glioblastoma cells grown as s.c. xenograft tumors in athymic nude mice; species or system mice with U118 tumors", "settings": "214 mg/kg loading dose, 60 mg/kg 72 hours later; harvested at 168 hours; relative to human IgG control", "experimental": "The level of receptor phosphotyrosine in U118 tumors was evaluated one week after treatment with anti-PDGFRα antibody or human IgGt. Mice with established U118 tumors (500 mm^3) were treated with a 214 mg/kg loading dose followed 72 hours later by a 60 mg/kg maintenance dose of antibody. Tumors were harvested from mice one week (168 hours) after the first antibody injection (at a time before tumor regression is observed on average; see FIG. 18A) and homogenized in phosphorylation assay lysis buffer (see above). The lysates were centrifuged twice at 14,000 rpm and the protein concentration for the collected supernatant was determined (Bio-Rad protein assay, Bio-Rad, Hercules, Calif.). Lysate (4 mg) from each sample was immunoprecipitation using anti-PDGFRα antibody. Immunoprecipitated human PDGFRα was then immunoblotted with either an anti-PDGFR or anti-phosphotyrosine antibody."}, "[2]": {"test_system": "SKLMS-1 cells", "experiment": "PDGF-stimulated [3H]thymidine incorporation in SKLMS-1 cells", "format": "cell-based, human", "experimental": "(§1) The ant-PDGFRα monoclonal antibody was tested for its ability to block PDGFAA-induced mitogenesis of PAE Rα cells. Cells were seeded in 96-well tissue culture plates (1×10^4 cells per well) and grown overnight in 100 μL medium per well. The wells were then rinsed with serum-free medium and cells were serum starved overnight with 75 μL serum-free medium added to each well. IgG was added (25 μL/well) and the plates were incubated for 30 minutes at 37° C. PDGF-AA or PDGF-BB (25 μL/well) was then added and plates were incubated for 18 to 20 hours at 37° C. Plates were incubated for an additional 4 hours after each well received 0.25 μCi [^3H]thymidine (25 μL/well). Antibody, PDGF, and [^3H]thymidine were all diluted in serum-free medium. Cells were then washed with PBS plus 1% bovine serum albumin and detached by treatment with trypsin (100 μL/well). […] After processing the filter, DNA incorporated radioactivity was determined on a scintillation counter (Wallac Microbeta, model 1450).\n(§2) Human tumor cell lines expressing PDGFRα were tested to determine the affects of the human anti-PDGFRα antibody on malignant growth in in vitro and in vivo systems. Two such tumor cell lines that express PDGFRα as determined by flow cytometry are SKLMS-1 (leiomyosarcoma) and U118 (glioblastoma). […]"}, "[3]": {"molecular_target": "T1, PDGFRα", "experiment": "Ligand-induced PDGFRα tyrosine phosphorylation in PAE Rα cells", "format": "cell-based, porcine aortic endothelial cells stably expressing PDGFRα", "design": "expressed in transfected cells; host or cells: porcine aortic endothelial cells (PAE Rα)", "experimental": "(§3) Cells were seeded in six-well Falcon tissue culture plates (250,000 cells per well) and allowed to grow overnight. Wells were then rinsed and incubated in serum-free medium. After an overnight incubation to render cells quiescent, the cells were treated with antibodies for 30 minutes at 37° C. followed by addition of PDGF-AA or PDGF-BB and incubation for an additional 10 minutes at 37° C. Cells were then detached and lysed in 200 μL lysis buffer (50 mmol/L Tris-HCl (pH 8.0), 1% Triton X-100, 150 mmol/L NaCl, 1 mmol/L EDTA, 0.1% SDS, 1 mmol/L sodium orthovanadate, and protease inhibitors (Complete Mini, Roche, Mannheim, Germany)). Cell lysates were analyzed by SDS-PAGE and Western blotting using enhanced chemiluminescence reagents and Hyperfilm (Amersham Biosciences)."}, "[4]": {"test_system": "SKLMS-1 cells", "experiment": "PDGF-AA-induced Akt and MAPK phosphorylation in SKLMS-1 cells", "format": "cell-based, human", "settings": "PDGF-AA stimulation of SKLMS-1 cells", "experimental": "as §3\n(§4) Human tumor cell lines expressing PDGFRα were tested to determine the affects of the human anti-PDGFRα antibody on malignant growth in in vitro and in vivo systems. Two such tumor cell lines that express PDGFRα as determined by flow cytometry are SKLMS-1 (leiomyosarcoma) and U118 (glioblastoma). These cell lines also respond to ligand in mitogenic assays and form tumors in mice. SKLMS-1 has the potential for not only paracrine but also autocrine stimulation."}, "[5]": {"test_system": "U118 cells", "experiment": "PDGF-AA-induced downstream-effector phosphorylation in U118 cells", "format": "cell-based, human", "experimental": "as §3, §4"}, "[6]": {"test_system": "glioblastoma (U118) xenograft", "experiment": "U118 glioblastoma s.c. xenograft growth", "format": "in vivo, athymic nude mice", "from_the_text": "(§5) S.c. tumor xenografts were established by injecting 10×10^6 SKLMS-1 or U118 cells mixed in Matrigel (Collaborative Research Biochemicals, Bedford, Mass.) into female athymic nude mice (Crl:NU/NU-nuBR, Charles River Laboratories, Wilmington, Mass.). Tumors were allowed to reach a mean tumor volume (π/6×longest length×perpendicular width^2) of about 400 mm^3. The mice were randomized into five groups (n=12) and treated by i.p. injection twice weekly for the duration of the study. Group 1 mice were treated with vehicle control (0.9% NaCl, USP for Irrigation, B/Braun). Groups 2 to 4 mice were treated with 6, 20, and 60 mg/kg of the instant anti-PDGFRα antibody. Group 5 mice were treated with 60 mg/kg human IgG (Sigma). Groups treated with 6, 20, or 60 mg/kg anti-PDGFRα antibody or human IgG were given 21.4, 71.4, and 214 mg/kg loading doses, respectively. The loading doses were calculated to achieve a steady state plasma concentration from the first dose (elimination half-life, 7 days) using a dosing regimen of twice weekly. Tumor volumes were evaluated twice weekly and tumor growth in the treatment groups was compared with a repeated measures ANOVA.\n(§6) Resected tumors were fixed in QDL fixative at 4° C. for 24 hours. After paraffin embedding and sectioning at 4 μm, formalin-fixed sections were stained with Mayer's H&E (Richard Allen, Kalamazoo, Mich.)."}, "[7]": {"test_system": "Akt phosphorylation in PC3-ML cells", "experiment": "Akt phosphorylation in PC3-ML cells (Western blot)", "format": "cell-based, human", "experimental": "Bone marrow samples from normal male donors (ages 18-45) were supplied by Cambrex (Poietics™ Donor Program). Samples were centrifuged at 1,500 rpm in order to separate the soluble and cellular phases. The supernatant was filtered using 0.8 μm and 0.22 μm filters in succession. 50 μl of bone marrow aspirate was administered to cells in 1 ml of medium (1:20 final dilution).\nFor experiments performed in the presence of serum, cells were cultured in DMEM supplemented with 10% FBS and 50 μg/ml gentamycin for 24 hours prior to exposure to bone marrow. For experiments in the absence of serum (starved cells), cells were washed twice with PBS, the growth medium was replaced with serum-free DMEM, and the cells were incubated for 4 hours prior to exposure to bone marrow preparations. When used, AG-1296, a specific inhibitor of PDGF receptors (Rice et al., 1999, Amer. J. Path. 155, 213-21) was added to cultures 30 min. prior to exposure to bone marrowaspirate. IMC-3G3 antibodies were administered as described at pre-treatment times as stated below."}, "[8]": {"experiment": "Elimination half-life used for loading dose calculation", "design": "species or system mice", "settings": "mouse, in vivo", "from_the_text": "as §5"}, "[9]": {"test_system": "leiomyosarcoma (SKLMS-1) xenograft", "experiment": "SKLMS-1 leiomyosarcoma s.c. xenograft growth", "format": "in vivo, athymic nude mice", "from_the_text": "as §5, §6"}, "[10]": {"test_system": "U118 cells", "experiment": "PDGF-stimulated [3H]thymidine incorporation in U118 cells", "format": "cell-based, human", "settings": "at 66 nmol/L", "experimental": "as §1, §2"}}}
{"substance": "IMC-3G3: human anti-PDGFRα monoclonal antibody; heavy chain variable region SEQ ID NO:8, light chain variable region SEQ ID NO:16", "values": [{"measurement": "level of PDGFRα phosphotyrosine in U118 tumors", "setting": "[1]", "result": "reduction in the level of PDGFRα phosphotyrosine"}, {"measurement": "PDGF-BB-stimulated mitogenic response", "setting": "[2]", "result": "inhibited"}, {"measurement": "PDGF-BB-induced receptor phosphorylation", "setting": "[3]", "result": "near background levels"}, {"measurement": "IC50", "setting": "[3]; read-out: concentration for 50% inhibition of PDGFRα phosphorylation", "result": 0.25, "unit": "nM"}, {"measurement": "inhibition of Akt phosphorylation", "setting": "[4]", "result": 100, "unit": "%"}, {"measurement": "inhibition of MAPKs phosphorylation", "setting": "[4]", "result": "about 80%"}, {"measurement": "inhibition of phosphorylation in U118 cells", "setting": "[5]", "result": "effective inhibitor of phosphorylation"}, {"measurement": "tumor regression", "setting": "[6]; 6 mg/kg", "result": "4 of 12"}, {"measurement": "% T/C at end of study", "setting": "[6]; 6 mg/kg i.p. twice weekly", "result": 67, "unit": "%"}, {"measurement": "tumor regression", "setting": "[6]; 20 mg/kg", "result": "5 of 11"}, {"measurement": "% T/C at end of study", "setting": "[6]; 20 mg/kg i.p. twice weekly", "result": 63, "unit": "%"}, {"measurement": "tumor regression", "setting": "[6]; 60 mg/kg", "result": "10 of 12"}, {"measurement": "% T/C at end of study", "setting": "[6]; 60 mg/kg i.p. twice weekly", "result": 35, "unit": "%"}, {"measurement": "histologic examination of xenografts", "setting": "[6]; 60 mg/kg, compared with saline-control group", "result": "fewer viable tumor cells"}, {"measurement": "effect on PDGF-BB stimulated Akt phosphorylation", "setting": "[7]; 20 μg/ml, pre-incubation 30 minutes, 30 ng/ml PDGF-BB", "result": "neutralized"}, {"measurement": "inhibition of bone marrow induced Akt phosphorylation", "setting": "[7]; 30-minute incubation time", "result": "about 40%"}, {"measurement": "inhibitory effect on Akt phosphorylation, 120-minute vs 30-minute preincubation", "setting": "[7]; bone marrow induced", "result": "significantly more effective"}, {"measurement": "elimination half-life", "setting": "[8]", "result": 170, "unit": "h"}, {"measurement": "final % TIC", "setting": "[9]; 6 mg/kg i.p. twice weekly", "result": 66, "unit": "%"}, {"measurement": "final % TIC", "setting": "[9]; 20 mg/kg i.p. twice weekly", "result": 57, "unit": "%"}, {"measurement": "final % TIC", "setting": "[9]; 60 mg/kg i.p. twice weekly", "result": 31, "unit": "%"}, {"measurement": "tumor regressions", "setting": "[9]; 6, 20 and 60 mg/kg", "result": "no tumor regressions"}, {"measurement": "histologic examination of xenografts", "setting": "[9]; day 25, compared with saline-control group", "result": "reduction in the amount of viable tumor cells and cellular packing"}, {"measurement": "inhibition of PDGF-BB-stimulated mitogenic response", "setting": "[10]", "result": 40, "unit": "%"}]}
